# Results taken from patent US20260184693A1, “INHIBITORS OF SOLUTE CARRIER FAMILY 6A MEMBER 19 (SLC6A19) AND METHODS OF USE THEREOF” (Maze Therapeutics, Inc., priority 2022, published 2026).
# Columns and labels:
# human SLC6A19 [1] = molecular target: T1, human SLC6A19 (Homo sapiens, UniProt Q695T7); assay: Example B-1: L-[3H]leucine uptake, liquid scintillation, in CHO cells with doxycycline-inducible expression of human SLC6A19 and TMEM27; type: cell-based; settings: read-out: SLC6A19_Radioligand Uptake Assay IC50
# T1 construct: expressed in transfected cells
# T1 sequence (Q695T7 1-634): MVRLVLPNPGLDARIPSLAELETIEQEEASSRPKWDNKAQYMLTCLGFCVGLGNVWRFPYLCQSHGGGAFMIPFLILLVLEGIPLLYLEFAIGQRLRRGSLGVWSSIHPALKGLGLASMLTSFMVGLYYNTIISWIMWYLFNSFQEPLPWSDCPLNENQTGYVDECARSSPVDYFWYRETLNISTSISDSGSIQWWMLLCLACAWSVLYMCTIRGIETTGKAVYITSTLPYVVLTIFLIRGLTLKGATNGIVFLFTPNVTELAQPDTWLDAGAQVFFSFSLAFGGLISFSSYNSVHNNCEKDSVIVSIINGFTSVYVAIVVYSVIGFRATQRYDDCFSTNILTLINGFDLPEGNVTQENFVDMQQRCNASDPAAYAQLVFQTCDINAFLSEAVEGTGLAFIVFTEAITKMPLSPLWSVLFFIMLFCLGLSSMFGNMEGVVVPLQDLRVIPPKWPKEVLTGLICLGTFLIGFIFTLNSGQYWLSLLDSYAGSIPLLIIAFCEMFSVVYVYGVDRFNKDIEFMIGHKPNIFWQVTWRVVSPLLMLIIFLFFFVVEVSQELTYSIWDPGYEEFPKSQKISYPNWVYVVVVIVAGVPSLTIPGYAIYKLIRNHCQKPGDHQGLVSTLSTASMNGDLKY
# T1 sequence (Q9HBJ8 15-222 partner): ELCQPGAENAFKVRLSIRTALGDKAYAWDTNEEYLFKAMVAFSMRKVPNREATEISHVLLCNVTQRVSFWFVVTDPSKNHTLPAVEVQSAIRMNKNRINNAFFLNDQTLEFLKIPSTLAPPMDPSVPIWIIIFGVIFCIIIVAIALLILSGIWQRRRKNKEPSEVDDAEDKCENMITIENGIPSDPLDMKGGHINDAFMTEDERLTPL
# Summary of the method: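 CHO cells induced 18 h with 1 µg/mL doxycycline (uninduced wells as expression control), washed in HBSS, compound in 8-point 3-fold series (0.5% DMSO), then 1.6 mM final [3H]:cold leucine (1:15000) uptake for 20 min at 37 °C. Scintillation counting; activity normalized to positive control (0%) and DMSO (100%).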
# human SLC6A19 [2] = molecular target: T1, human SLC6A19; assay: Example B2: 13C6,15N-isoleucine uptake, RapidFire mass spectrometry, in CHO cells with doxycycline-inducible expression of human SLC6A19 and TMEM27; type: cell-based; settings: read-out: SLC6A19_RapidFire Uptake Assay IC50
# Summary of the method: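 CHO cells were induced with doxycycline to express human SLC6A19 with TMEM27, then pre-incubated 20 min at 37 °C with compounds (2-fold, 10-point, duplicate). Uptake of 13C6,15N-isoleucine (2 mM solution added) over a further 20 min was measured by RapidFire mass spectrometry, using 13C-leucine as internal standard.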
smiles,measurement,setting,value
"CCN(C(=O)NCc1cc2cc(Cl)ccc2[nH]1)[C@@H]1CCCN(C(=O)C2CCC2)C1 [Compound 232, (R)-3-((5-chloro-1H-indol-2-yl)methyl)-1-(1-(cyclobutanecarbonyl)piperidin-3-yl)-1-ethylurea]",IC50,human SLC6A19 [1],230 nM
same,IC50,human SLC6A19 [2],45.3 nM
"CC(=O)N1CCC[C@@H](N(CC(F)(F)F)C(=O)NCc2cc3cc(Cl)ccc3[nH]2)C1 [Compound 195, (R)-1-(1-acetylpiperidin-3-yl)-3-((5-chloro-1H-indol-2-yl)methyl)-1-(2,2,2-trifluoroethyl)urea]",IC50,human SLC6A19 [1],102 nM
same,IC50,human SLC6A19 [2],62 nM
"CN(C(=O)NCc1cc2cc(Cl)ccc2[nH]1)[C@@H]1CCCN(C(=O)Cc2ncco2)C1 [Compound 204, (R)-3-((5-chloro-1H-indol-2-yl)methyl)-1-methyl-1-(1-(2-(oxazol-2-yl)acetyl)piperidin-3-yl)urea]",IC50,human SLC6A19 [1],256 nM
same,IC50,human SLC6A19 [2],763 nM
"CN(C(=O)NCc1cc2cc(Cl)ccc2[nH]1)[C@@H]1CCCN(C(=O)Cc2ccncc2)C1 [Compound 188, (R)-3-((5-chloro-1H-indol-2-yl)methyl)-1-methyl-1-(1-(2-(pyridin-4-yl)acetyl)piperidin-3-yl)urea]",IC50,human SLC6A19 [1],656 nM
same,IC50,human SLC6A19 [2],947 nM
"CN(C(=O)NCc1cc2cc(Cl)ccc2[nH]1)[C@@H]1CCCN(C(=O)Cc2cn[nH]c2)C1 [Compound 199, (R)-1-(1-(2-(1H-pyrazol-4-yl)acetyl)piperidin-3-yl)-3-((5-chloro-1H-indol-2-yl)methyl)-1-methylurea]",IC50,human SLC6A19 [1],434 nM
same,IC50,human SLC6A19 [2],582 nM
"CN(C(=O)NCc1cc2cc(Cl)ccc2[nH]1)[C@@H]1CCCN(C(=O)C2CC(CO)C2)C1 (stereo partly drawn) [Compound 121, (R)-3-((5-chloro-1H-indol-2-yl)methyl)-1-(1-(3-(hydroxymethyl)cyclobutane-1-carbonyl)piperidin-3-yl)-1-methylurea]",IC50,human SLC6A19 [1],280 nM
same,IC50,human SLC6A19 [2],405 nM
"CC(=O)N1CCC[C@@H](N(C)C(=O)NCc2cc3cc(C4CC4)ccc3[nH]2)C1 [Compound 220, (R)-1-(1-acetylpiperidin-3-yl)-3-((5-cyclopropyl-1H-indol-2-yl)methyl)-1-methylurea]",IC50,human SLC6A19 [1],794 nM
same,IC50,human SLC6A19 [2],953 nM
"CCN(C(=O)NCc1cc2cc(Cl)ccc2[nH]1)[C@@H]1CCCN(C(C)=O)C1 [Compound 163, (R)-1-(1-acetylpiperidin-3-yl)-3-((5-chloro-1H-indol-2-yl)methyl)-1-ethylurea]",IC50,human SLC6A19 [1],145 nM
same,IC50,human SLC6A19 [2],49.4 nM
"CC(=O)N1CC[C@@H](C)[C@@H](N(C)C(=O)NCc2cc3cc(Cl)ccc3[nH]2)C1 (racemic) [Compound 203, 1-((3R,4R and 3S,4S)-1-acetyl-4-methylpiperidin-3-yl)-3-((5-chloro-1H-indol-2-yl)methyl)-1-methylurea]",IC50,human SLC6A19 [1],2170 nM
same,IC50,human SLC6A19 [2],4870 nM
"CC(=O)N1CCC[C@@H](N(C)C(=O)NCc2cc3[nH]cc(C)c3cc2C)C1 [Compound 233, (R)-1-(1-acetylpiperidin-3-yl)-3-((3,5-dimethyl-1H-indol-6-yl)methyl)-1-methylurea]",IC50,human SLC6A19 [1],15600 nM
same,IC50,human SLC6A19 [2],9120 nM
"CC(=O)N1C[C@@H](N(C)C(=O)NCc2cc3cc(Cl)ccc3[nH]2)CC[C@H]1C (single isomer, unassigned) [Compound 193, 1-((3S,6R or 3R,6S)-1-acetyl-6-methylpiperidin-3-yl)-3-((5-chloro-1H-indol-2-yl)methyl)-1-methylurea]",IC50,human SLC6A19 [1],> 50000 nM
same,IC50,human SLC6A19 [2],> 50000 nM
"CN(C(=O)NCc1cc2cc(Cl)ccc2[nH]1)[C@@H]1CCCN(C(=O)c2ccn(CC(F)(F)F)n2)C1 [Compound 198, (R)-3-((5-chloro-1H-indol-2-yl)methyl)-1-methyl-1-(1-(1-(2,2,2-trifluoroethyl)-1H-pyrazole-3-carbonyl)piperidin-3-yl)urea]",IC50,human SLC6A19 [1],232 nM
same,IC50,human SLC6A19 [2],163 nM
"CCc1ccc2[nH]c(CNC(=O)N(C)[C@@H]3CCCN(C(C)=O)C3)cc2c1 [Compound 217, (R)-1-(1-acetylpiperidin-3-yl)-3-((5-ethyl-1H-indol-2-yl)methyl)-1-methylurea]",IC50,human SLC6A19 [1],574 nM
same,IC50,human SLC6A19 [2],738 nM
"CN(C(=O)NCc1cc2cc(Cl)ccc2[nH]1)[C@@H]1CCCN(C(=O)CC2CCC2)C1 [Compound 120, (R)-3-((5-chloro-1H-indol-2-yl)methyl)-1-(1-(2-cyclobutylacetyl)piperidin-3-yl)-1-methylurea]",IC50,human SLC6A19 [1],574 nM
same,IC50,human SLC6A19 [2],949 nM
"CN(C(=O)NCc1cc2cc(Cl)ccc2[nH]1)[C@@H]1CCCN(C(=O)C2CC(O)C2)C1 (stereo partly drawn) [Compound 119, (R)-3-((5-chloro-1H-indol-2-yl)methyl)-1-(1-(3-hydroxycyclobutane-1-carbonyl)piperidin-3-yl)-1-methylurea]",IC50,human SLC6A19 [1],629 nM
same,IC50,human SLC6A19 [2],839 nM
"CN(C(=O)NCc1cc2cc(Cl)ccc2[nH]1)[C@@H]1CCCN(C(=O)c2cccc(O)c2)C1 [Compound 190, (R)-3-((5-chloro-1H-indol-2-yl)methyl)-1-(1-(3-hydroxybenzoyl)piperidin-3-yl)-1-methylurea]",IC50,human SLC6A19 [1],483 nM
same,IC50,human SLC6A19 [2],578 nM
"CN(C(=O)NCc1cc2cc(Cl)ccc2[nH]1)[C@@H]1CCCN(C(=O)c2ccn[nH]2)C1 [Compound 191, (R)-1-(1-(1H-pyrazole-5-carbonyl)piperidin-3-yl)-3-((5-chloro-1H-indol-2-yl)methyl)-1-methylurea]",IC50,human SLC6A19 [1],151 nM
same,IC50,human SLC6A19 [2],312 nM
"CC(=O)N1CCC[C@@H](N(C(=O)NCc2cc3cc(Cl)ccc3[nH]2)C(C)C)C1 [Compound 221, (R)-1-(1-acetylpiperidin-3-yl)-3-((5-chloro-1H-indol-2-yl)methyl)-1-isopropylurea]",IC50,human SLC6A19 [1],2410 nM
same,IC50,human SLC6A19 [2],4610 nM
"CC(=O)N1CCC[C@@H](N(C)C(=O)NCc2cc3cc(Cl)ccc3[nH]2)C1 [Compound 147, (R)-1-(1-acetylpiperidin-3-yl)-3-((5-chloro-1H-indol-2-yl)methyl)-1-methylurea]",IC50,human SLC6A19 [1],183 nM
same,IC50,human SLC6A19 [2],195 nM
"CN(C(=O)NCc1cc2cc(Cl)ccc2[nH]1)[C@@H]1CCCN(C(=O)Cc2ccno2)C1 [Compound 194, (R)-3-((5-chloro-1H-indol-2-yl)methyl)-1-(1-(2-(isoxazol-5-yl)acetyl)piperidin-3-yl)-1-methylurea]",IC50,human SLC6A19 [1],197 nM
same,IC50,human SLC6A19 [2],242 nM
